Source: PMC9284121, “Florfenicol-Polyarginine Conjugates Exhibit Promising Antibacterial Activity Against Resistant Strains” (Frontiers in Chemistry, 2022)
In brackets after ≈: the same amount, converted by molar mass. Where two headings read alike, the source gives them in different places. Where a SMILES comes first, the peptide text is derived from it.

Columns and labels:
Assay in all cases: microbe, parasite or virus in culture
[1] = tested on: E. coli clinical strain 2018XJ105; type: cell-based, Escherichia coli
Method: (§1) All the florfenicol-polyarginine conjugates were tested against Gram-positive and Gram-negative bacteria, including MRSA (ATCC 43300), S. aureus (ATCC 25923), E. coli (ATCC 25922), clinical strains of E. coli (2019XJ06, 2019XJ25, 2018XJ108, 2018XJ105, 2018XJ30) and clinical strains of florfenicol resistant E. coli (2017XJ30, 2019XJ20).
(§2) Gram-negative E. coli (ATCC 25922), clinical strains of E. coli (2019XJ06, 2019XJ25, 2018XJ108, 2018XJ105, 2018XJ30) and clinical strains of florfenicol resistant E. coli (2017XJ30, 2019XJ20) and Gram-positive MRSA (ATCC 43300) and S. aureus (ATCC 25923) were maintained in 50% glycerol at −80°C up to the time of use. The bacterial strains were cultured in Muller-Hinton broth (Guangdong Huan Kai Microbial Sci. &Tech. Co., Ltd. in China) media. Mueller-Hinton agar (Guangdong Huan Kai Microbial Sci. & Tech. Co., Ltd. in China) was used as growth medium in solid media.
(§3) CLSI guidelines were followed for determining MICs of all florfenicol-polyarginine conjugates by the broth microdilution method. The required bacterial (E. coli, S. aureus and MRSA) single colony was inoculated into Muller-Hinton broth (MHB) and cultured for 4–6 h. And then, the bacteria were adjusted to 10^6 CFU/ml in cultures. All compounds were prepared into a stock solution at a concentration of 0.1 mol/L with DMSO. The stock solutions were then diluted to required concentration (100, 50, 25, 12.5, 6.25, 3.125, 1.56, 0.78, 0.39 μmol/L) with MHB media. Subsequently, a 96 well plate was filled with these dilutions and 10^6 CFU/ml bacterial suspension. The diluted compounds of different concentrations (100 µl) were first added to 96 well plate, and then 100 µl bacterial dilutions (10^6 CFU/ml) was added. The negative and positive controls were 200 µl of MHB media and 100 µl of bacterial suspension combined with 100 µl of MHB media, respectively. The experiment of each compound was repeated three times, and each experiment was at least twice repeated. The 96 well plates were incubated at 37°C for 16–24 h. MIC indicated antibacterial activity. Florfenicol was used as a control drug.

[2] = tested on: E. coli clinical strain 2018XJ108; type: cell-based, Escherichia coli
Method: as §1, §2, §3

[3] = tested on: E. coli clinical strain 2018XJ30; type: cell-based, Escherichia coli
Method: as §1, §2, §3

[4] = tested on: E. coli clinical strain 2019XJ06; type: cell-based, Escherichia coli
Method: as §1, §2, §3

[5] = tested on: E. coli clinical strain 2019XJ25; type: cell-based, Escherichia coli
Method: as §1, §2, §3

[6] = tested on: E.coli (ATCC 25922); type: cell-based, Escherichia coli
Method: as §1, §2, §3

[7] = tested on: florfenicol resistant E. coli clinical strain 2017XJ30; type: cell-based, Escherichia coli
Method: as §1, §2, §3

[8] = tested on: florfenicol resistant E. coli clinical strain 2019XJ20; type: cell-based, Escherichia coli
Method: as §1, §2, §3

[9] = tested on: S. aureus (ATCC 292130); type: cell-based, Staphylococcus aureus
[10] = tested on: MRSA (ATCC 43300); type: cell-based, methicillin-resistant S. aureus
Method: as §1, §2, §3

[11] = tested on: 10 strains tested (E. coli, S. aureus, MRSA, clinical E. coli strains); type: cell-based
Method: as §1, §2, §3

[12] = Escherichia coli, clinical E. coli 2018XJ105, MHB, read-out: MIC
[13] = Escherichia coli, clinical E. coli 2018XJ108, MHB, read-out: MIC
[14] = Escherichia coli, clinical E. coli 2018XJ30, MHB, read-out: MIC
[15] = Escherichia coli, clinical E. coli 2019XJ06, MHB, read-out: MIC
[16] = Escherichia coli, clinical E. coli 2019XJ25, MHB, read-out: MIC
[17] = Escherichia coli, ATCC25922, E.coli (ATCC 25922), MHB, read-out: MIC
[18] = Escherichia coli, florfenicol resistant E. coli 2017XJ30, MHB, read-out: MIC
[19] = Escherichia coli, florfenicol resistant E. coli 2019XJ20, MHB, read-out: MIC
[20] = Staphylococcus aureus, ATCC292130, S. aureus (ATCC 292130), MHB, read-out: MIC
[21] = Staphylococcus aureus, MRSA (ATCC 43300), MHB, read-out: MIC
[22] = Escherichia coli, against the 10 strains tested, read-out: MIC
[23] = florfenicol resistant clinical strain 2017XJ30
[24] = florfenicol resistant clinical strain 2019XJ20

| SMILES | MIC ([1]; clinical strain 2018XJ105) [µM] | MIC ([2]; clinical strain 2018XJ108) [µM] | MIC ([3]; clinical strain 2018XJ30) [µM] | MIC ([4]; clinical strain 2019XJ06) [µM] | MIC ([5]; clinical strain 2019XJ25) [µM] | MIC ([6]; ATCC 25922) [µM] | MIC [7, 23] [µM] | MIC [8, 24] [µM] | MIC ([9]; ATCC 292130) [µM] | MIC ([10]; ATCC 43300) [µM] | other results |
| --- | --- | --- | --- | --- | --- | --- | --- | --- | --- | --- | --- |
| CS(=O)(=O)c1ccc([C@@H](OC(=O)CCC(=O)O)[C@@H](CF)NC(=O)C(Cl)Cl)cc1 [Compound C1, florfenicol succinate] |  |  |  |  |  |  |  |  |  |  | MIC [1, 12]: > 100 µM; MIC [2, 13]: > 100 µM; MIC [3, 14]: > 100 µM; MIC [4, 15]: > 100 µM; MIC [5, 16]: > 100 µM; MIC [6, 17]: > 100 µM; MIC [7, 18]: > 100 µM; MIC [8, 19]: > 100 µM; MIC [9, 20]: > 100 µM; MIC [10, 21]: > 100 µM; MIC [11, 22]: > 100 µM |
| CS(=O)(=O)c1ccc([C@@H](OC(=O)CCCC(=O)O)[C@@H](CF)NC(=O)C(Cl)Cl)cc1 [Compound C2, florfenicol glutarate] |  |  |  |  |  |  |  |  |  |  | MIC [1, 12]: > 100 µM; MIC [2, 13]: > 100 µM; MIC [3, 14]: > 100 µM; MIC [4, 15]: > 100 µM; MIC [5, 16]: > 100 µM; MIC [6, 17]: > 100 µM; MIC [7, 18]: > 100 µM; MIC [8, 19]: > 100 µM; MIC [9, 20]: > 100 µM; MIC [10, 21]: > 100 µM; MIC [11, 22]: > 100 µM |
| CS(=O)(=O)c1ccc([C@@H](OC(=O)CCCCC(=O)O)[C@@H](CF)NC(=O)C(Cl)Cl)cc1 [Compound C3] |  |  |  |  |  |  |  |  |  |  | MIC [1, 12]: > 100 µM; MIC [2, 13]: > 100 µM; MIC [3, 14]: > 100 µM; MIC [4, 15]: > 100 µM; MIC [5, 16]: > 100 µM; MIC [6, 17]: > 100 µM; MIC [7, 18]: > 100 µM; MIC [8, 19]: > 100 µM; MIC [9, 20]: > 100 µM; MIC [10, 21]: > 100 µM; MIC [11, 22]: > 100 µM |
| COC(=O)[C@@H](N)CCCNC(=N)N [Compound D1] | >100 | >100 | >100 | >100 | >100 | >100 | >100 | >100 | >100 | >100 |  |
| N=C(N)NCCC[C@H](N)C(N)=O [Compound D2] | >100 | >100 | >100 | >100 | >100 | >100 | >100 | >100 | >100 | >100 |  |
| N=C(N)NCCC[C@H](NC(=O)[C@@H](N)CCCNC(=N)N)C(N)=O [Compound D3] (H-Arg-Arg-NH2) | >100 | >100 | >100 | >100 | >100 | >100 | >100 | >100 | >100 | >100 |  |
| N=C(N)NCCC[C@H](NC(=O)[C@H](CCCNC(=N)N)NC(=O)[C@H](CCCNC(=N)N)NC(=O)[C@@H](N)CCCNC(=N)N)C(N)=O [Compound D4] (H-RRRR-NH2) | >100 | >100 | >100 | >100 | >100 | >100 | >100 | >100 | >100 | >100 |  |
| N=C(N)NCCC[C@H](NC(=O)[C@H](CCCNC(=N)N)NC(=O)[C@H](CCCNC(=N)N)NC(=O)[C@H](CCCNC(=N)N)NC(=O)[C@H](CCCNC(=N)N)NC(=O)[C@@H](N)CCCNC(=N)N)C(N)=O [Compound D5] | 100 (≈ 95.4 µg/mL) | 100 (≈ 95.4 µg/mL) | 100 (≈ 95.4 µg/mL) | 100 (≈ 95.4 µg/mL) | 100 (≈ 95.4 µg/mL) | 100 (≈ 95.4 µg/mL) | 100 (≈ 95.4 µg/mL) | 100 (≈ 95.4 µg/mL) | 50 (≈ 47.7 µg/mL) | 50 (≈ 47.7 µg/mL) | MIC [11]: 25 to 100 µM |
| COC(=O)[C@H](CCCNC(=N)N)NC(=O)CCC(=O)O[C@H](c1ccc(S(C)(=O)=O)cc1)[C@@H](CF)NC(=O)C(Cl)Cl [Compound E1] | 25 (≈ 15.7 µg/mL) | 25 (≈ 15.7 µg/mL) | 25 (≈ 15.7 µg/mL) | 25 (≈ 15.7 µg/mL) | 25 (≈ 15.7 µg/mL) | 25 (≈ 15.7 µg/mL) | >100 | >100 | 50 (≈ 31.4 µg/mL) | 50 (≈ 31.4 µg/mL) |  |
| CS(=O)(=O)c1ccc([C@@H](OC(=O)CCC(=O)N[C@@H](CCCNC(=N)N)C(N)=O)[C@@H](CF)NC(=O)C(Cl)Cl)cc1 [Compound E2] | 25 (≈ 15.3 µg/mL) | 25 (≈ 15.3 µg/mL) | 25 (≈ 15.3 µg/mL) | 25 (≈ 15.3 µg/mL) | 25 (≈ 15.3 µg/mL) | 25 (≈ 15.3 µg/mL) | >100 | >100 | 25 (≈ 15.3 µg/mL) | 25 (≈ 15.3 µg/mL) |  |
| COC(=O)[C@H](CCCNC(=N)N)NC(=O)CCCC(=O)O[C@H](c1ccc(S(C)(=O)=O)cc1)[C@@H](CF)NC(=O)C(Cl)Cl [Compound E7] | >100 | >100 | >100 | >100 | >100 | >100 | >100 | >100 | >100 | >100 |  |
| CS(=O)(=O)c1ccc([C@@H](OC(=O)CCCC(=O)N[C@@H](CCCNC(=N)N)C(N)=O)[C@@H](CF)NC(=O)C(Cl)Cl)cc1 [Compound E8] | >100 | >100 | >100 | >100 | >100 | >100 | >100 | >100 | >100 | >100 |  |
| COC(=O)[C@H](CCCNC(=N)N)NC(=O)CCCCC(=O)O[C@H](c1ccc(S(C)(=O)=O)cc1)[C@@H](CF)NC(=O)C(Cl)Cl [Compound E13] | >100 | >100 | >100 | >100 | >100 | >100 | >100 | >100 | >100 | >100 |  |
| CS(=O)(=O)c1ccc([C@@H](OC(=O)CCCCC(=O)N[C@@H](CCCNC(=N)N)C(N)=O)[C@@H](CF)NC(=O)C(Cl)Cl)cc1 [Compound E14] | >100 | >100 | >100 | >100 | >100 | >100 | >100 | >100 | >100 | >100 |  |
